The text below walks through data of ChEMBL document CHEMBL5143523, “Construction and activity evaluation of novel benzodioxane derivatives as dual-target antifungal inhibitors” (Eur J Med Chem, 2022).

≈ marks a conversion by molar mass, not a printed value. A value given as a limit tells only on which side of the number the result lay.

What all share (type): functional
For one test, the system named is Candida tropicalis. Description: Antifungal activity against Candida tropicalis ATCC 1369 assessed as fungal growth inhibition measured after 72 hrs by CLSI protocol based liquid medium dilution method.
A further test has as its system Nakaseomyces glabratus. The test can be described thus: Antifungal activity against Candida glabrata ATCC 0001 assessed as fungal growth inhibition measured after 72 hrs by CLSI protocol based liquid medium dilution method.
The next test deals with Pichia kudriavzevii. Description: Antifungal activity against Candida krusei ATCC 6258 assessed as fungal growth inhibition measured after 72 hrs by CLSI protocol based liquid medium dilution method.
The test system of test [1] is Candida albicans. The test can be described thus: Antifungal activity against Candida albicans ATCC 10231 assessed as fungal growth inhibition measured after 72 hrs by CLSI protocol based liquid medium dilution method.
Another test deals with Aspergillus fumigatus. The test can be described thus: Antifungal activity against Aspergillus fumigatus KM8001 assessed as fungal growth inhibition measured after 72 hrs by CLSI protocol based liquid medium dilution method.
Test [2] has as its system Candida albicans. The test can be described thus: Antifungal activity against Candida albicans assessed as fungal growth inhibition measured after 72 hrs by CLSI protocol based liquid medium dilution method.
The subject of test [3] is Candida albicans. The test can be described thus: Antifungal activity against fluconazole resistant Candida albicans strain 103 assessed as fungal growth inhibition measured after 72 hrs by CLSI protocol based liquid medium dilution method.
Test [4] has as its system Candida albicans. The test can be described thus: Antifungal activity against fluconazole resistant Candida albicans strain 904 assessed as fungal growth inhibition measured after 72 hrs by CLSI protocol based liquid medium dilution method.
Test [5] relates to Candida albicans. The test can be described thus: Antifungal activity against fluconazole resistant Candida albicans strain CaR assessed as fungal growth inhibition measured after 72 hrs by CLSI protocol based liquid medium dilution method.
Test [6] concerns Candida albicans. The test can be described thus: Antifungal activity against fluconazole resistant Candida albicans strain 17# assessed as fungal growth inhibition measured after 72 hrs by CLSI protocol based liquid medium dilution method.
Test [7] deals with Candida albicans. Description: Antifungal activity against fluconazole resistant Candida albicans strain 901 assessed as fungal growth inhibition measured after 72 hrs by CLSI protocol based liquid medium dilution method.

For orientation: MIC50 means an inhibitory concentration at the 50% level, which refers to growth in some studies and to a panel of isolates in others. For `CCC(C)[C@H](NC(=O)c1cccc2c1OCCO2)C(=O)Nc1ccncc1` (stereo not given in full), the MIC50 was 0.5 µg/mL (≈ 1.35 µM) with Candida tropicalis; 2 µg/mL (≈ 5.41 µM) in the test with Nakaseomyces glabratus; 0.5 µg/mL (≈ 1.35 µM) in the test with Pichia kudriavzevii; 1 µg/mL (≈ 2.71 µM) in the test on Candida albicans [1]; 4 µg/mL (≈ 10.8 µM) with Aspergillus fumigatus.
For `CC(C)[C@H](NC(=O)c1ccc2c(c1)OCCO2)C(=O)N[C@@H](Cn1cncn1)c1ccccc1`, the MIC50 was 0.25 µg/mL (≈ 0.556 µM) in the test with Candida tropicalis; 0.5 µg/mL (≈ 1.11 µM) in the test on Nakaseomyces glabratus; 0.25 µg/mL (≈ 0.556 µM) in the test with Pichia kudriavzevii; 0.25 µg/mL (≈ 0.556 µM) in the test on Candida albicans [1]; more than 8 µg/mL in the test with Aspergillus fumigatus.
In the case of `CCOC(=O)[C@@H](NC(=O)c1cccc2c1OCCO2)C(C)C`, the MIC50 in the test with Candida albicans [2] turned out to be 16 µg/mL (≈ 52.1 µM).
For `CCC(C)[C@H](NC(=O)c1cccc2c1OCCO2)C(=O)Nc1cccnc1` (stereo not given in full), the MIC50 in the test on Candida tropicalis is 0.5 µg/mL (≈ 1.35 µM); in the test with Nakaseomyces glabratus, 1 µg/mL (≈ 2.71 µM); with Pichia kudriavzevii it was 2 µg/mL (≈ 5.41 µM); in the test on Candida albicans [1], 0.5 µg/mL (≈ 1.35 µM); in the test with Aspergillus fumigatus, more than 8 µg/mL.
With `O=C(N[C@H](Cc1ccccc1)Cn1ccnc1)c1cccc2c1OCCO2`, the MIC50 was 0.25 µg/mL (≈ 0.688 µM) with Candida tropicalis; 0.25 µg/mL (≈ 0.688 µM) in the test with Nakaseomyces glabratus; 0.5 µg/mL (≈ 1.38 µM) in the test with Candida albicans [2]; 0.5 µg/mL (≈ 1.38 µM) in the test on Pichia kudriavzevii; 0.5 µg/mL (≈ 1.38 µM) with Candida albicans [1]; more than 8 µg/mL in the test on Aspergillus fumigatus.
As to `O=C(N[C@@H](Cn1ccnc1)c1ccccc1)c1ccc2c(c1)OCCO2`, the MIC50 in the test on Candida tropicalis was 0.25 µg/mL (≈ 0.716 µM); in the test on Nakaseomyces glabratus, 0.25 µg/mL (≈ 0.716 µM); with Pichia kudriavzevii, 0.5 µg/mL (≈ 1.43 µM); with Candida albicans [1], 0.25 µg/mL (≈ 0.716 µM); in the test with Aspergillus fumigatus, more than 8 µg/mL.
`CC(C)[C@H](NC(=O)c1cccc2c1OCCO2)C(=O)N[C@@H](Cn1ccnc1)c1ccccc1`: the MIC50 is 0.5 µg/mL (≈ 1.11 µM) in the test on Candida tropicalis; 0.5 µg/mL (≈ 1.11 µM) in the test on Nakaseomyces glabratus; 0.25 µg/mL (≈ 0.557 µM) with Candida albicans [2]; 0.25 µg/mL (≈ 0.557 µM) in the test on Pichia kudriavzevii; 0.25 µg/mL (≈ 0.557 µM) in the test on Candida albicans [1]; more than 8 µg/mL with Aspergillus fumigatus.
`O=C(N[C@H](Cc1ccccc1)Cn1ccnc1)c1ccc2c(c1)OCCO2`: the MIC50 with Candida tropicalis was determined as 0.5 µg/mL (≈ 1.38 µM); in the test on Nakaseomyces glabratus, 0.25 µg/mL (≈ 0.688 µM); with Pichia kudriavzevii, 0.5 µg/mL (≈ 1.38 µM); in the test on Candida albicans [1], 0.5 µg/mL (≈ 1.38 µM); in the test on Aspergillus fumigatus, 4 µg/mL (≈ 11 µM).
On to `CC(C)[C@H](NC(=O)c1cccc2c1OCCO2)C(=O)Nc1ccncc1`, for which the MIC50 stood at 0.5 µg/mL (≈ 1.41 µM) in the test on Candida tropicalis; 0.5 µg/mL (≈ 1.41 µM) with Nakaseomyces glabratus; 0.5 µg/mL (≈ 1.41 µM) in the test on Candida albicans [2]; 1 µg/mL (≈ 2.81 µM) in the test with Pichia kudriavzevii; 0.5 µg/mL (≈ 1.41 µM) in the test on Candida albicans [1]; 4 µg/mL (≈ 11.3 µM) in the test with Aspergillus fumigatus.
With `CCC(C)[C@H](NC(=O)c1ccc2c(c1)OCCO2)C(=O)N[C@@H](Cn1ccnc1)c1ccccc1` (stereo not given in full), the MIC50 amounted to 1 µg/mL (≈ 2.16 µM) with Candida albicans [3]; 4 µg/mL (≈ 8.65 µM) in the test with Candida albicans [4]; 0.5 µg/mL (≈ 1.08 µM) in the test with Candida tropicalis; 2 µg/mL (≈ 4.32 µM) with Candida albicans [5]; 0.125 µg/mL (≈ 0.27 µM) with Nakaseomyces glabratus; 0.25 µg/mL (≈ 0.54 µM) in the test with Pichia kudriavzevii. The MIC50 with Candida albicans [6] is 2 µg/mL (≈ 4.32 µM); in the test with Candida albicans [1], 0.125 µg/mL (≈ 0.27 µM); with Candida albicans [7], 2 µg/mL (≈ 4.32 µM); with Aspergillus fumigatus, 2 µg/mL (≈ 4.32 µM).
For `CCC(C)[C@H](NC(=O)c1cccc2c1OCCO2)C(=O)N[C@@H](Cn1ccnc1)c1ccccc1` (stereo not given in full), the MIC50 was 0.25 µg/mL (≈ 0.54 µM) with Candida tropicalis; 0.25 µg/mL (≈ 0.54 µM) with Nakaseomyces glabratus; 0.5 µg/mL (≈ 1.08 µM) with Pichia kudriavzevii; 0.5 µg/mL (≈ 1.08 µM) in the test with Candida albicans [1]; more than 8 µg/mL with Aspergillus fumigatus.
As to `CC(C)[C@H](NC(=O)c1ccc2c(c1)OCCO2)C(=O)N[C@@H](Cn1ccnc1)c1ccccc1`, the MIC50 with Candida tropicalis came to 0.125 µg/mL (≈ 0.279 µM); with Nakaseomyces glabratus, 0.25 µg/mL (≈ 0.557 µM); with Pichia kudriavzevii it was 0.5 µg/mL (≈ 1.11 µM); in the test with Candida albicans [1], 0.25 µg/mL (≈ 0.557 µM); in the test on Aspergillus fumigatus, 4 µg/mL (≈ 8.92 µM).
With `O=C(N[C@@H](Cn1ccnc1)c1ccccc1)c1cccc2c1OCCO2`, the MIC50 is 0.5 µg/mL (≈ 1.43 µM) with Candida tropicalis; 0.5 µg/mL (≈ 1.43 µM) with Nakaseomyces glabratus; 1 µg/mL (≈ 2.86 µM) in the test with Pichia kudriavzevii; 0.5 µg/mL (≈ 1.43 µM) in the test on Candida albicans [1]; more than 8 µg/mL with Aspergillus fumigatus.
Turning to `CC(C)[C@H](NC(=O)c1cccc2c1OCCO2)C(=O)Nc1cccnc1`, the MIC50 is 1 µg/mL (≈ 2.81 µM) in the test with Candida tropicalis; 1 µg/mL (≈ 2.81 µM) with Nakaseomyces glabratus; 0.5 µg/mL (≈ 1.41 µM) in the test with Pichia kudriavzevii; 0.5 µg/mL (≈ 1.41 µM) in the test with Candida albicans [1]; more than 8 µg/mL in the test on Aspergillus fumigatus.
Turning to `O=C(N[C@H](Cc1ccccc1)Cn1cncn1)c1cccc2c1OCCO2`, the MIC50 in the test on Candida tropicalis amounted to 0.25 µg/mL (≈ 0.686 µM); in the test on Nakaseomyces glabratus, 0.5 µg/mL (≈ 1.37 µM); in the test with Pichia kudriavzevii it was 0.5 µg/mL (≈ 1.37 µM); in the test on Candida albicans [1] it was 0.25 µg/mL (≈ 0.686 µM); with Aspergillus fumigatus, 4 µg/mL (≈ 11 µM).
In the case of `CCC(C)[C@H](NC(=O)c1ccc2c(c1)OCCO2)C(=O)Nc1cccnc1` (stereo not given in full), the MIC50 came to 2 µg/mL (≈ 5.41 µM) with Candida tropicalis; 1 µg/mL (≈ 2.71 µM) with Nakaseomyces glabratus; 1 µg/mL (≈ 2.71 µM) in the test on Pichia kudriavzevii; 0.5 µg/mL (≈ 1.35 µM) with Candida albicans [1]; 4 µg/mL (≈ 10.8 µM) in the test with Aspergillus fumigatus.
`O=C(NCCc1ccccc1)c1cccc2c1OCCO2`: in the test with Candida albicans [2], the MIC50 is 8 µg/mL (≈ 28.2 µM).
On to `CC(C)[C@H](NC(=O)c1ccc2c(c1)OCCO2)C(=O)Nc1cccnc1`, for which the MIC50 with Candida tropicalis is 1 µg/mL (≈ 2.81 µM); with Nakaseomyces glabratus, 1 µg/mL (≈ 2.81 µM); in the test on Pichia kudriavzevii it was 0.5 µg/mL (≈ 1.41 µM); in the test with Candida albicans [1], 0.25 µg/mL (≈ 0.703 µM); in the test on Aspergillus fumigatus it was more than 8 µg/mL.
Turning to `O=C(N[C@@H](Cn1cncn1)c1ccccc1)c1ccc2c(c1)OCCO2`, the MIC50 in the test on Candida tropicalis is 0.5 µg/mL (≈ 1.43 µM); with Nakaseomyces glabratus it was 0.125 µg/mL (≈ 0.357 µM); with Pichia kudriavzevii it was 0.5 µg/mL (≈ 1.43 µM); in the test on Candida albicans [1], 0.125 µg/mL (≈ 0.357 µM); in the test on Aspergillus fumigatus, more than 8 µg/mL.
As to `CCC(C)[C@H](NC(=O)c1cccc2c1OCCO2)C(=O)N[C@@H](Cn1cncn1)c1ccccc1` (stereo not given in full), the MIC50 was determined as 0.25 µg/mL (≈ 0.539 µM) in the test on Candida tropicalis; 0.5 µg/mL (≈ 1.08 µM) in the test on Nakaseomyces glabratus; 0.25 µg/mL (≈ 0.539 µM) in the test on Pichia kudriavzevii; 0.125 µg/mL (≈ 0.27 µM) in the test on Candida albicans [1]; 4 µg/mL (≈ 8.63 µM) in the test on Aspergillus fumigatus.
As for `CC(C)[C@H](NC(=O)c1ccc2c(c1)OCCO2)C(=O)Nc1ccncc1`, the MIC50 was 0.5 µg/mL (≈ 1.41 µM) with Candida tropicalis; 0.5 µg/mL (≈ 1.41 µM) in the test with Nakaseomyces glabratus; 0.25 µg/mL (≈ 0.703 µM) with Pichia kudriavzevii; 0.5 µg/mL (≈ 1.41 µM) in the test with Candida albicans [1]; more than 8 µg/mL in the test with Aspergillus fumigatus.
Turning to `CCC(C)[C@H](NC(=O)c1ccc2c(c1)OCCO2)C(=O)Nc1ccncc1` (stereo not given in full), the MIC50 with Candida tropicalis was 0.5 µg/mL (≈ 1.35 µM); in the test with Nakaseomyces glabratus, 2 µg/mL (≈ 5.41 µM); in the test with Pichia kudriavzevii, 1 µg/mL (≈ 2.71 µM); with Candida albicans [1], 0.5 µg/mL (≈ 1.35 µM); with Aspergillus fumigatus, more than 8 µg/mL.
Take `CCC(C)[C@H](NC(=O)c1ccc2c(c1)OCCO2)C(=O)N[C@@H](Cn1cncn1)c1ccccc1` (stereo not given in full): the MIC50 in the test with Candida tropicalis stood at 0.25 µg/mL (≈ 0.539 µM); in the test with Nakaseomyces glabratus it was 0.5 µg/mL (≈ 1.08 µM); in the test with Pichia kudriavzevii it was 0.25 µg/mL (≈ 0.539 µM); with Candida albicans [1], 0.25 µg/mL (≈ 0.539 µM); in the test on Aspergillus fumigatus it was 4 µg/mL (≈ 8.63 µM).
`O=C(N[C@@H](Cn1cncn1)c1ccccc1)c1cccc2c1OCCO2`: the MIC50 in the test with Candida tropicalis was 0.5 µg/mL (≈ 1.43 µM); in the test on Nakaseomyces glabratus, 1 µg/mL (≈ 2.85 µM); in the test with Pichia kudriavzevii, 0.25 µg/mL (≈ 0.714 µM); in the test on Candida albicans [1] it was 0.125 µg/mL (≈ 0.357 µM); in the test on Aspergillus fumigatus it was more than 8 µg/mL.
